Common to all, as to assay: relative viability (nuclei count vs DMSO), 5 days (fraction); higher = more cells survive
Compound in the assay “Selisistat + Alpelisib”: C1CC(C2=C(C1)C3=C(N2)C=CC(=C3)Cl)C(=O)N [Selisistat] + Cc1nc(NC(=O)N2CCC[C@H]2C(N)=O)sc1-c1ccnc(C(C)(C)C(F)(F)F)c1 [Alpelisib] (partner 2 µM)
The method, boiled down: (§1)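 Dosing by pin tool came one day after lung cancer cell lines were seeded in 1536-well plates, using either one drug or a fixed anchor-drug dose plus five library-drug doses (not always all listed) in √10 steps. After 5 days, nuclei were counted on 4× images. Relative viability is treated-well nuclei count divided by vehicle-well nuclei count, and values are medians of duplicate plates.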

Compound in the assay “Selisistat + Vorinostat”: C1CC(C2=C(C1)C3=C(N2)C=CC(=C3)Cl)C(=O)N [Selisistat] + O=C(CCCCCCC(=O)Nc1ccccc1)NO [Vorinostat] (partner 1 µM)
The method, boiled down:
as §1

Compound in the assay “Selisistat + Decitabine”: C1CC(C2=C(C1)C3=C(N2)C=CC(=C3)Cl)C(=O)N [Selisistat] + Nc1ncn([C@H]2C[C@H](O)[C@@H](CO)O2)c(=O)n1 [Decitabine] (partner 2 µM)
The method, boiled down:
as §1

Compound in the assay “Serdemetan + Lapatinib”: c1ccc2c(CCNc3ccc(Nc4ccncc4)cc3)c[nH]c2c1 [Serdemetan] + CS(=O)(=O)CCNCc1ccc(-c2ccc3ncnc(Nc4ccc(OCc5cccc(F)c5)c(Cl)c4)c3c2)o1 [Lapatinib] (partner 2 µM)
The method, boiled down:
as §1

Turning to UMC-11, the relative viability amounted to 1.19 with Selisistat + Alpelisib (first compound 0.4 µM); 0.99 in the assay with Selisistat + Alpelisib (first compound 1.265 µM); 1.04 with Selisistat + Alpelisib (first compound 4 µM); 0.994 with Selisistat + Alpelisib (first compound 12.65 µM); 0.887 with Selisistat + Alpelisib (first compound 40 µM); 0.456 with Selisistat + Vorinostat (first compound 0.4 µM). The relative viability in the assay with Selisistat + Vorinostat (first compound 1.265 µM) is 0.477; in the assay with Selisistat + Vorinostat (first compound 4 µM), 0.531; with Selisistat + Vorinostat (first compound 12.65 µM) it was 0.504; with Selisistat + Vorinostat (first compound 40 µM) it was 0.593; in the assay with Selisistat + Decitabine (first compound 0.4 µM), 0.604; with Selisistat + Decitabine (first compound 1.265 µM), 0.688. The relative viability is 0.646 with Selisistat + Decitabine (first compound 4 µM); 0.676 with Selisistat + Decitabine (first compound 12.65 µM); 0.637 with Selisistat + Decitabine (first compound 40 µM); 0.953 with Serdemetan + Lapatinib (first compound 0.04 µM); 0.915 in the assay with Serdemetan + Lapatinib (first compound 0.1265 µM); 1.03 in the assay with Serdemetan + Lapatinib (first compound 0.4 µM). Moreover, the values for the relative viability with Serdemetan + Lapatinib (first compound 1.265 µM) and in the assay with Serdemetan + Lapatinib (first compound 4 µM) were 0.703 and 0.886, respectively.
